# From patent US7563825B1, “Modulation of beta-catenin coactivator interactions to effect stem cell growth or differentiation” (Choongwae Pharma Corporation, priority 2005, dated 2009)
# Entries after “also recorded” stand apart in the source; their conditions may differ.
# Legend:
# β-catenin/CBP = β-catenin/CBP (Homo sapiens, UniProt Q92793); settings: CBP arm of the Wnt pathway; cited from earlier work
# C2C12 myoblasts = assay: Differentiation of C2C12 myoblasts; type: cell-based; settings: 10 μM ICG-001, compared to differentiation medium or growth medium (FIGS. 3, 4)
# Experimental: FIG. 4 illustrates that differentiation of C2C12 myeloblasts is induced by 10 μM ICG-001 as compared to differentiation medium.
# (§1) From our chemogenomic studies with the small molecule inhibitor of the β-catenin/CBP interaction and additional gene expression profiling, we have developed a model that describes how differential coactivator usage in Wnt signaling controls proliferation vs. differentiation. The critical feature of this model is that the CBP arm (FIG. 2, left side) of the pathway is essential for proliferation without differentiation, for example in cancer or stem cells, whereas the p300 arm (FIG. 2, right side) is critical for differentiation, with limited proliferation.
# 3T3-L1 preadipocytes = assay: Differentiation of 3T3-L1 preadipocytes; type: cell-based
# Excerpt: as §1
# cancer cells = settings: cited from earlier work
# Sequence of β-catenin/CBP (Q92793 whole entry): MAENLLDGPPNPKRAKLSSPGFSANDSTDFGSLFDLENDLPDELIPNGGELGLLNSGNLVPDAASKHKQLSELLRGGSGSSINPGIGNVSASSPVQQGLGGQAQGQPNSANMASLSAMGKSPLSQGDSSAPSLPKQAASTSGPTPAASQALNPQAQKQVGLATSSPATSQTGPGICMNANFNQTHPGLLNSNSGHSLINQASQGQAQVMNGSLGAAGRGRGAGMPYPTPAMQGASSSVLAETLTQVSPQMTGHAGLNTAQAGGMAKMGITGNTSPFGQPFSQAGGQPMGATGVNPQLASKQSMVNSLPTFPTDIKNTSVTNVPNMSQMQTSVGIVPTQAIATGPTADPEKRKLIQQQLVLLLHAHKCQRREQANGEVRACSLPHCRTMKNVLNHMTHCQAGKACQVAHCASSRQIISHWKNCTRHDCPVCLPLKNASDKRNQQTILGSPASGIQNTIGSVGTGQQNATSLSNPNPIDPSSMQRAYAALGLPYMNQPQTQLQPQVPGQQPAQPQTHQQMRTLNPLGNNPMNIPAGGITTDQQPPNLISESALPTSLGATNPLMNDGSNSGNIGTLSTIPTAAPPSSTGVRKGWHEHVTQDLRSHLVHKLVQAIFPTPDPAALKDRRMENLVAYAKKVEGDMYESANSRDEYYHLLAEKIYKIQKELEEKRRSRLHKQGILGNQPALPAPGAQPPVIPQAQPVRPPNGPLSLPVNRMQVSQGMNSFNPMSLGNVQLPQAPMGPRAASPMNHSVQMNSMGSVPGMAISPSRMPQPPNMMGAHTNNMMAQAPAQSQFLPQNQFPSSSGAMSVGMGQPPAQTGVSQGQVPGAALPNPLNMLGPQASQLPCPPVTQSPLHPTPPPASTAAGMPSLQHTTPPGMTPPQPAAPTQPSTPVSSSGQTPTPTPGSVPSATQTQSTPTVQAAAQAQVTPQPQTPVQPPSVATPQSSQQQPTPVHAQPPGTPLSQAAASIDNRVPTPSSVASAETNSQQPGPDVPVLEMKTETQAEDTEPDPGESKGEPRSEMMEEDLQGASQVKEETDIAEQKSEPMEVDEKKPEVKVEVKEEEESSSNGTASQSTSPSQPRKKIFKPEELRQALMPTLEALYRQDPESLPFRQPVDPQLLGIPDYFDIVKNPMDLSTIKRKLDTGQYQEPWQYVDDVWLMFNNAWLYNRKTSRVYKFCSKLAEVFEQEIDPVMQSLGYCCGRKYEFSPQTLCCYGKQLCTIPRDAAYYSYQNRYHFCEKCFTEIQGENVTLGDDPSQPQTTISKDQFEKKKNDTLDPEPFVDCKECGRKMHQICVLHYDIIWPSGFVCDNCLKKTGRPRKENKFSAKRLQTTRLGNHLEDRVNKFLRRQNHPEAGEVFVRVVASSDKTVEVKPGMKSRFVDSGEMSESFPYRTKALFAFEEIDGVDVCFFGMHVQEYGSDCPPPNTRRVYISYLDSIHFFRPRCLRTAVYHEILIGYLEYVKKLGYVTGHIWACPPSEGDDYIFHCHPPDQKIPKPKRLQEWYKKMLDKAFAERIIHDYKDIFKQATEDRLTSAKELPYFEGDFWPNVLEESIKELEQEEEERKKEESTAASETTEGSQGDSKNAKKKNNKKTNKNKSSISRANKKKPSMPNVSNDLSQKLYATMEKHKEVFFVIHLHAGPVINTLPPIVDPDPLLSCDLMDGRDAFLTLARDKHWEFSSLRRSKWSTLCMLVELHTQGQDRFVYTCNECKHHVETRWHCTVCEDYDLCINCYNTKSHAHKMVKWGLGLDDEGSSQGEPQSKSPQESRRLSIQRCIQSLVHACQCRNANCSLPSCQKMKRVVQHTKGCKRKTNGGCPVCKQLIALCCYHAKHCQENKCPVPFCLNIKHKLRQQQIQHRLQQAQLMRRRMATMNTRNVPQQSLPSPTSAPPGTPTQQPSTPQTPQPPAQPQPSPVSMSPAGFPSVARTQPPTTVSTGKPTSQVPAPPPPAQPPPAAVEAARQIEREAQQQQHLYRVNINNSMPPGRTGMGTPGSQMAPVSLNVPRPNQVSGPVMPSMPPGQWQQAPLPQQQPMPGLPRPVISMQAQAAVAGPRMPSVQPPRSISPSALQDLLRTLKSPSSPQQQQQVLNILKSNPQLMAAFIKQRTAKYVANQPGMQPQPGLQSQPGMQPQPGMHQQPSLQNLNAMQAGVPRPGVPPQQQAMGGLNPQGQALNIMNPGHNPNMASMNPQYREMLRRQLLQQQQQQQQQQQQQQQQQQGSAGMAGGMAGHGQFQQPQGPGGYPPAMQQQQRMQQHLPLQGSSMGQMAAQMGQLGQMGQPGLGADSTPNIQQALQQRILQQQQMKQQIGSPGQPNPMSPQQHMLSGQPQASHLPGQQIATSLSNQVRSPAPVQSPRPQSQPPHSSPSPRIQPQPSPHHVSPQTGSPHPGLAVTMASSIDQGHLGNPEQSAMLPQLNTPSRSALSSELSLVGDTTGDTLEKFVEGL
compound,measurement,setting,value
O=C1[C@H](Cc2ccc(O)cc2)N2C(=O)CCN(C(=O)NCc3ccccc3)[C@H]2CN1Cc1cccc2ccccc12 [ICG-001],inhibition of β-catenin/CBP dependent transcription,β-catenin/CBP,specifically inhibits
same,differentiation of C2C12 myeloblasts (myoblasts),C2C12 myoblasts,induces the differentiation; also recorded: induced; also recorded: inducing the differentiation
same,"differentiation of non-tumorigenic precursor cells, 3T3-L1 preadipocytes",3T3-L1 preadipocytes,inducing the differentiation
same,programmed cell death in cancer cells,cancer cells,selectively inducing programmed cell death
